# Results: patent US9187425B2, “2,5-disubstituted arylsulfonamide CCR3 antagonists” (Axikin Pharmaceuticals, Inc., priority 2009, dated 2015)
# Target: T1, CCR3 (UniProt P51677)
# T1 sequence (P51677 1-355): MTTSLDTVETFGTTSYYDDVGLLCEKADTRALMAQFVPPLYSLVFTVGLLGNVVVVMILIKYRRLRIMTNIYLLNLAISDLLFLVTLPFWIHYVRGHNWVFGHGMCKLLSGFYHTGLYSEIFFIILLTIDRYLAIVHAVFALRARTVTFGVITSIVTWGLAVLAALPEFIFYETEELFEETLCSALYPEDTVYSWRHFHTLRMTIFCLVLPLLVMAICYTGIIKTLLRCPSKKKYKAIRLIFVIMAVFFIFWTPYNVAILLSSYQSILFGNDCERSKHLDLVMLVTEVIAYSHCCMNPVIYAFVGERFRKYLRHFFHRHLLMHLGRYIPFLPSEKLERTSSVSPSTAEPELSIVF
# Test: CCR3 Receptor Binding Assay ([125I]-labeled human eotaxin/CCL11 displacement on cells)
# Settings: 0.1 nM [125I]-labeled human eotaxin/CCL11, 60 min at room temperature, 2×10^5 cells/well
# Experimental: Cells were washed once with PBS and resuspended in a binding buffer (25 mM HEPES pH 7.6, 5 mM MgCl2, 1 mM CaCl2, 0.5% BSA, 0.1% NaN3). […] of cell suspension (2×10^5 cells/well) and 0.1 nM [^125I]-labeled human eotaxin/CCL11 (2000 Ci/mmol specific activity) were mixed in a 96-well U-bottom polypropylene plate, and incubated for 60 min at room temperature for the binding reaction. The cell suspension was then transferred to a filtration plate (#MAFB, Millipore), and washed 3 times with the binding buffer containing 0.5 M NaCl, scintillant added, and the radioactivity was counted on a TopCount (Packard). For the determination of non-specific binding, the cell suspension and [^125I]-labeled human eotaxin/CCL11 were incubated in the presence of 500 nM of unlabeled human eotaxin/CCL11. See, Iino et al., “Molecular cloning and functional characterization of cynomolgus monkey (Macaca fascicularis) CC chemokine receptor, CCR3,” Cytokine 2002, 19, 276-286.
# Biological results are summarized in Table 1, wherein A represents a value no greater than 50 nM, and B represents a value greater than 50 nM but no greater than 500 nM, C represents a value greater than 500 nM but no greater than 5 μM, and D represents a value greater than 5 μM.
row,SMILES,Ki
1,N#Cc1ccc(Sc2cc(Cl)cc(Cl)c2)c(S(=O)(=O)N2CCSCC2)c1 [Compound 21],0.05 to 0.5 µM
2,CC1CC(C)CN(S(=O)(=O)c2cc(C#N)ccc2Sc2cc(Cl)cc(Cl)c2)C1 (stereo not drawn) [Compound 8],> 5 µM
3,Cc1cc(C)cc(Sc2ccc(C#N)cc2S(=O)(=O)N2CCS(=O)(=O)CC2)c1 [Compound 17],≤ 0.05 µM
4,CC1CN(S(=O)(=O)c2cc(C#N)ccc2Sc2cc(Cl)cc(Cl)c2)CC(C)N1 (stereo not drawn) [Compound 28],≤ 0.05 µM
5,Cc1cc(C)cc(Sc2ccc([N+](=O)[O-])cc2S(=O)(=O)N2CCSCC2)c1 [Compound 25],> 5 µM
6,COC(=O)C1CN(S(=O)(=O)c2cc(C#N)ccc2Sc2cc(Cl)cc(Cl)c2)CCN1 (stereo not drawn) [Compound 32],≤ 0.05 µM
7,O=[N+]([O-])c1ccc(Sc2cc(Cl)cc(Cl)c2)c(S(=O)(=O)N2CCS(=O)(=O)CC2)c1 [Compound 30],≤ 0.05 µM
8,Cc1cc(C)cc(Sc2ccc(C#N)cc2S(=O)(=O)N2CCNC(=O)C2)c1 [Compound 10],≤ 0.05 µM
9,N#Cc1ccc([S+]([O-])c2cc(Cl)cc(Cl)c2)c(S(=O)(=O)N2CCCCC2)c1 (stereo not drawn) [Compound 2],> 5 µM
10,Cc1cc(C)cc(Sc2ccc(C#N)cc2S(=O)(=O)N2CCCCC2)c1 [Compound 4],≤ 0.05 µM
11,N#Cc1ccc(Sc2cc(C(F)(F)F)cc(C(F)(F)F)c2)c(S(=O)(=O)N2CCOCC2)c1 [Compound 18],0.5 to 5 µM
12,CC1CCN(S(=O)(=O)c2cc(C#N)ccc2Sc2cc(Cl)cc(Cl)c2)CC1 [Compound 6],> 5 µM
13,N#Cc1ccc(Sc2cc(Cl)cc(Cl)c2)c(S(=O)(=O)N2CCS(=O)(=O)CC2)c1 [Compound 23],≤ 0.05 µM
14,N#Cc1ccc(Sc2cc(Cl)cc(Cl)c2)c(S(=O)(=O)N2CCNC(=O)C2)c1 [Compound 11],≤ 0.05 µM
15,CC1CN(S(=O)(=O)c2cc(C#N)ccc2Sc2cc(Cl)cc(Cl)c2)CC(C)N1 (stereo not drawn) [Compound 29],≤ 0.05 µM
16,N#Cc1ccc(Sc2cc(Cl)cc(Cl)c2)c(S(=O)(=O)N2CCNC(=O)C2)c1 [Compound 9],≤ 0.05 µM
17,N#Cc1ccc(Sc2cc(Cl)cc(Cl)c2)c(S(=O)(=O)N2CCOCC2)c1 [Compound 12],≤ 0.05 µM
18,N#Cc1ccc(Sc2cc(Cl)cc(Cl)c2)c(S(=O)(=O)N2CCCCC2)c1 [Compound 1],0.05 to 0.5 µM
19,Cc1cc(C)cc(Sc2ccc(C#N)cc2S(=O)(=O)N2CCS(=O)(=O)CC2)c1 [Compound 26],> 5 µM
20,CC(C)N1CCN(S(=O)(=O)c2cc(C#N)ccc2Sc2cc(Cl)cc(Cl)c2)CC1=O [Compound 31],≤ 0.05 µM
21,N#Cc1ccc(Sc2cc(Cl)cc(Cl)c2)c(S(=O)(=O)N2CCS(=O)(=O)CC2)c1 [Compound 14],≤ 0.05 µM
22,N#Cc1ccc(Sc2cc(C(F)(F)F)cc(C(F)(F)F)c2)c(S(=O)(=O)N2CCSCC2)c1 [Compound 19],> 5 µM
23,N#Cc1ccc(Sc2cc(Cl)cc(Cl)c2)c(S(=O)(=O)N2CCC(F)CC2)c1 [Compound 7],≤ 0.05 µM
24,CC1CN(S(=O)(=O)c2cc(C#N)ccc2Sc2cc(Cl)cc(Cl)c2)CCN1 (stereo not drawn) [Compound 27],≤ 0.05 µM
25,N#Cc1ccc(Sc2cc(C(F)(F)F)cc(C(F)(F)F)c2)c(S(=O)(=O)N2CCS(=O)(=O)CC2)c1 [Compound 20],> 5 µM
26,N#Cc1ccc(S(=O)(=O)c2cc(Cl)cc(Cl)c2)c(S(=O)(=O)N2CCCCC2)c1 [Compound 3],> 5 µM
27,Cc1cc(C)cc(Sc2ccc(C#N)cc2S(=O)(=O)N2CCSCC2)c1 [Compound 16],> 5 µM
28,O=[N+]([O-])c1ccc(Sc2cc(Cl)cc(Cl)c2)c(S(=O)(=O)N2CCSCC2)c1 [Compound 24],> 5 µM
29,Cc1cc(C)cc(Sc2ccc(C#N)cc2S(=O)(=O)N2CCC(C)CC2)c1 [Compound 5],> 5 µM
30,N#Cc1ccc(Sc2cc(Cl)cc(Cl)c2)c(S(=O)(=O)N2CCSCC2)c1 [Compound 13],≤ 0.05 µM
